Measured values from the NIST ThermoML archive (doi:10.1016/j.jct.2016.03.026).

Test: xn = mol fraction of the nth substance listed
Details: Fluid (supercritical or subcritical phases), Vibrating tube method, x1 = 0.97

O=C=O [carbon dioxide] + CO
Details	mass density [kg/m3]
304.21 K, 16700 kPa	863.76
304.21 K, 16725 kPa	864.02
304.21 K, 16750 kPa	864.2
304.21 K, 16775 kPa	864.47
304.21 K, 16800 kPa	864.63
304.21 K, 16825 kPa	864.86
304.21 K, 16850 kPa	865.05
304.21 K, 16875 kPa	865.26
304.21 K, 16900 kPa	865.51
304.21 K, 16925 kPa	865.7
304.21 K, 16950 kPa	865.9
304.21 K, 16975 kPa	866.12
304.21 K, 17000 kPa	866.34
304.21 K, 17025 kPa	866.56
304.21 K, 17050 kPa	866.78
304.21 K, 17075 kPa	866.99
304.21 K, 17100 kPa	867.2
304.21 K, 17125 kPa	867.4
304.21 K, 17150 kPa	867.63
304.21 K, 17175 kPa	867.77
304.21 K, 17200 kPa	867.99
304.21 K, 17225 kPa	868.2
304.21 K, 17250 kPa	868.43
304.21 K, 17275 kPa	868.66
304.21 K, 17300 kPa	868.87
304.21 K, 17325 kPa	869.01
304.21 K, 17350 kPa	869.28
304.21 K, 17375 kPa	869.42
304.21 K, 17400 kPa	869.69
304.21 K, 17425 kPa	869.89
304.21 K, 17450 kPa	870.09
304.21 K, 17475 kPa	870.29
304.21 K, 17500 kPa	870.48
304.21 K, 17525 kPa	870.66
304.21 K, 17550 kPa	870.86
304.21 K, 17575 kPa	871.06
304.21 K, 17600 kPa	871.23
304.21 K, 17625 kPa	871.44
304.21 K, 17650 kPa	871.68
304.21 K, 17675 kPa	871.84
304.21 K, 17700 kPa	872.08
304.21 K, 17725 kPa	872.29
304.21 K, 17750 kPa	872.45
304.21 K, 17775 kPa	872.68
304.21 K, 17800 kPa	872.83
304.21 K, 17825 kPa	873.02
304.21 K, 17850 kPa	873.25
304.21 K, 17875 kPa	873.48
304.21 K, 17900 kPa	873.63
304.21 K, 17925 kPa	873.87
304.21 K, 17950 kPa	874.01
304.21 K, 17975 kPa	874.23
304.21 K, 18000 kPa	874.46
304.21 K, 18025 kPa	874.62
304.21 K, 18050 kPa	874.83
304.21 K, 18075 kPa	875.05
304.21 K, 18100 kPa	875.2
304.21 K, 18125 kPa	875.42
304.21 K, 18150 kPa	875.58
304.21 K, 18175 kPa	875.78
304.21 K, 18200 kPa	876
304.21 K, 18225 kPa	876.22
304.21 K, 18250 kPa	876.35
304.21 K, 18275 kPa	876.56
304.21 K, 18300 kPa	876.78
304.21 K, 18325 kPa	876.99
304.21 K, 18350 kPa	877.14
304.21 K, 18375 kPa	877.36
304.21 K, 18400 kPa	877.5
304.21 K, 18425 kPa	877.73
304.21 K, 18450 kPa	877.88
304.21 K, 18475 kPa	878.11
304.21 K, 18500 kPa	878.3
304.21 K, 18525 kPa	878.46
304.21 K, 18550 kPa	878.68
304.21 K, 18575 kPa	878.87
304.21 K, 18600 kPa	879.03
304.21 K, 18625 kPa	879.24
304.21 K, 18650 kPa	879.38
304.21 K, 18675 kPa	879.61
304.21 K, 18700 kPa	879.76
304.21 K, 18725 kPa	879.99
304.21 K, 18750 kPa	880.19
304.21 K, 18775 kPa	880.38
304.21 K, 18800 kPa	880.58
304.21 K, 18825 kPa	880.78
304.21 K, 18850 kPa	880.89
304.21 K, 18875 kPa	881.09
304.21 K, 18900 kPa	881.28
304.21 K, 18925 kPa	881.49
304.21 K, 18950 kPa	881.68
304.21 K, 18975 kPa	881.88
304.21 K, 19000 kPa	882.06
304.21 K, 19025 kPa	882.19
304.21 K, 19050 kPa	882.43
304.21 K, 19075 kPa	882.62
304.21 K, 19100 kPa	882.73
304.21 K, 19125 kPa	882.92
304.21 K, 19150 kPa	883.11
304.21 K, 19175 kPa	883.3
304.21 K, 19200 kPa	883.48
304.21 K, 19225 kPa	883.65
304.21 K, 19250 kPa	883.86
304.21 K, 19275 kPa	884.07
304.21 K, 19300 kPa	884.25
304.21 K, 19325 kPa	884.43
304.21 K, 19350 kPa	884.6
304.21 K, 19375 kPa	884.78
304.21 K, 19400 kPa	884.95
304.21 K, 19425 kPa	885.12
304.21 K, 19450 kPa	885.28
304.21 K, 19475 kPa	885.46
304.21 K, 19500 kPa	885.62
304.21 K, 19525 kPa	885.78
304.21 K, 19550 kPa	886.04
304.21 K, 19575 kPa	886.21
304.21 K, 19600 kPa	886.37
304.21 K, 19625 kPa	886.54
304.21 K, 19650 kPa	886.76
304.21 K, 19675 kPa	886.92
304.21 K, 19700 kPa	887.09
304.21 K, 19725 kPa	887.24
304.21 K, 19750 kPa	887.4
304.21 K, 19775 kPa	887.64
304.21 K, 19800 kPa	887.8
304.21 K, 19825 kPa	887.96
304.21 K, 19850 kPa	888.12
304.21 K, 19875 kPa	888.28
304.21 K, 19900 kPa	888.48
304.21 K, 19925 kPa	888.67
304.21 K, 19950 kPa	888.82
304.21 K, 19975 kPa	888.98
304.21 K, 20000 kPa	889.2
313.15 K, 8375 kPa	468.68
313.15 K, 8400 kPa	477.47
313.15 K, 8425 kPa	486.09
313.15 K, 8450 kPa	494.72
313.15 K, 8475 kPa	503.03
313.15 K, 8500 kPa	510.78
313.15 K, 8525 kPa	518.43
313.15 K, 8550 kPa	525.63
313.15 K, 8575 kPa	531.85
313.15 K, 8600 kPa	538.44
313.15 K, 8625 kPa	544.56
313.15 K, 8650 kPa	551.14
313.15 K, 8675 kPa	556.46
313.15 K, 8700 kPa	562.19
313.15 K, 8725 kPa	566.94
313.15 K, 8750 kPa	571.39
313.15 K, 8775 kPa	576
313.15 K, 8800 kPa	580.21
313.15 K, 8825 kPa	583.78
313.15 K, 8850 kPa	587.78
313.15 K, 8875 kPa	591.7
313.15 K, 8900 kPa	595.4
313.15 K, 8925 kPa	598.87
313.15 K, 8950 kPa	601.87
313.15 K, 8975 kPa	604.9
313.15 K, 9000 kPa	608.05
313.15 K, 9025 kPa	611
313.15 K, 9050 kPa	613.79
313.15 K, 9075 kPa	616.51
313.15 K, 9100 kPa	619.14
313.15 K, 9125 kPa	621.62
313.15 K, 9150 kPa	624.11
313.15 K, 9175 kPa	626.69
313.15 K, 9200 kPa	629
313.15 K, 9225 kPa	631.2
313.15 K, 9250 kPa	633.38
313.15 K, 9275 kPa	635.44
313.15 K, 9300 kPa	637.48
313.15 K, 9325 kPa	639.32
313.15 K, 9350 kPa	641.4
313.15 K, 9375 kPa	643.26
313.15 K, 9400 kPa	645.2
313.15 K, 9425 kPa	646.98
313.15 K, 9450 kPa	648.9
313.15 K, 9475 kPa	650.62
313.15 K, 9500 kPa	652.27
313.15 K, 9525 kPa	653.94
313.15 K, 9550 kPa	655.55
313.15 K, 9575 kPa	657.12
313.15 K, 9600 kPa	658.64
313.15 K, 9625 kPa	660.18
313.15 K, 9650 kPa	661.7
313.15 K, 9675 kPa	663.21
313.15 K, 9700 kPa	664.7
313.15 K, 9725 kPa	666.14
313.15 K, 9750 kPa	667.47
313.15 K, 9775 kPa	668.89
313.15 K, 9800 kPa	670.26
313.15 K, 9825 kPa	671.58
313.15 K, 9850 kPa	672.87
313.15 K, 9875 kPa	674.13
313.15 K, 9900 kPa	675.44
313.15 K, 9925 kPa	676.66
313.15 K, 9950 kPa	677.96
313.15 K, 9975 kPa	679.1
313.15 K, 10000 kPa	680.33
313.15 K, 10025 kPa	681.48
313.15 K, 10050 kPa	682.54
313.15 K, 10075 kPa	683.7
313.15 K, 10100 kPa	684.8
313.15 K, 10125 kPa	685.84
313.15 K, 10150 kPa	686.83
313.15 K, 10175 kPa	687.88
313.15 K, 10200 kPa	688.8
313.15 K, 10225 kPa	689.94
313.15 K, 10250 kPa	690.95
313.15 K, 10275 kPa	691.93
313.15 K, 10300 kPa	693
313.15 K, 10325 kPa	693.97
313.15 K, 10350 kPa	694.91
313.15 K, 10375 kPa	695.92
313.15 K, 10400 kPa	696.92
313.15 K, 10425 kPa	697.78
313.15 K, 10450 kPa	698.73
313.15 K, 10475 kPa	699.66
313.15 K, 10500 kPa	700.62
313.15 K, 10525 kPa	701.51
313.15 K, 10550 kPa	702.39
313.15 K, 10575 kPa	703.29
313.15 K, 10600 kPa	704.13
313.15 K, 10625 kPa	705.05
313.15 K, 10650 kPa	705.9
313.15 K, 10675 kPa	706.75
313.15 K, 10700 kPa	707.66
313.15 K, 10725 kPa	708.5
313.15 K, 10750 kPa	709.33
313.15 K, 10775 kPa	710.14
313.15 K, 10800 kPa	710.93
313.15 K, 10825 kPa	711.74
313.15 K, 10850 kPa	712.55
313.15 K, 10875 kPa	713.33
313.15 K, 10900 kPa	714.15
313.15 K, 10925 kPa	714.94
313.15 K, 10950 kPa	715.71
313.15 K, 10975 kPa	716.52
313.15 K, 11000 kPa	717.28
313.15 K, 11025 kPa	718.03
313.15 K, 11050 kPa	718.76
313.15 K, 11075 kPa	719.52
313.15 K, 11100 kPa	720.27
313.15 K, 11125 kPa	720.97
